Assay results as given in patent US7202237B2, “Pyridylether derivatives, their preparation and use” (NeuroSearch A/S, priority 1997, dated 2007).
Counter-ions that a name gives are not always drawn. Like-named read-outs stand apart in the source and are kept apart here.

Key:
[1] = target: T1, neuronal nicotinic receptors (α4β2 subtype of nicotinic receptors) (Rattus norvegicus, UniProt P09483+P12390); experiment: In vitro inhibition of 3H-epibatidin binding
T1 construct: The forebrain (÷cerebellum) from a male Wistar rat (150–250 g) is homogenized; from tissue; host or cells: rat forebrain (without cerebellum) membrane homogenate
T1 sequence (P09483 31-630): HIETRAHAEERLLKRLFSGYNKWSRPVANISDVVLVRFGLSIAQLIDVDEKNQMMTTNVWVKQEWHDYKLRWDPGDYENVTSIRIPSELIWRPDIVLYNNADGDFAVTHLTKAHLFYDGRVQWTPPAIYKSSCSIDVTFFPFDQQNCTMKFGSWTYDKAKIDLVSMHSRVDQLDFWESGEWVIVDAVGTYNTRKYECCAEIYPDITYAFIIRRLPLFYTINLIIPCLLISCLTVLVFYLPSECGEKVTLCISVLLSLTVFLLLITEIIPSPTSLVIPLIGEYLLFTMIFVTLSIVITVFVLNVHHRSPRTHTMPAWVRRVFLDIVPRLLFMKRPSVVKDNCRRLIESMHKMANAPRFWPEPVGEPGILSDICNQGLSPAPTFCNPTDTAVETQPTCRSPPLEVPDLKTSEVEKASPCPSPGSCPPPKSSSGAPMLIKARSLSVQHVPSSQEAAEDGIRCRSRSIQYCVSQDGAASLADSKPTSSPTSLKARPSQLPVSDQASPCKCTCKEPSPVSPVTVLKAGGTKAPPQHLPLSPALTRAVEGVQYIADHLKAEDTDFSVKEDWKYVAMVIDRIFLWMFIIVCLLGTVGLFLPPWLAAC
T1 sequence (P12390 25-500): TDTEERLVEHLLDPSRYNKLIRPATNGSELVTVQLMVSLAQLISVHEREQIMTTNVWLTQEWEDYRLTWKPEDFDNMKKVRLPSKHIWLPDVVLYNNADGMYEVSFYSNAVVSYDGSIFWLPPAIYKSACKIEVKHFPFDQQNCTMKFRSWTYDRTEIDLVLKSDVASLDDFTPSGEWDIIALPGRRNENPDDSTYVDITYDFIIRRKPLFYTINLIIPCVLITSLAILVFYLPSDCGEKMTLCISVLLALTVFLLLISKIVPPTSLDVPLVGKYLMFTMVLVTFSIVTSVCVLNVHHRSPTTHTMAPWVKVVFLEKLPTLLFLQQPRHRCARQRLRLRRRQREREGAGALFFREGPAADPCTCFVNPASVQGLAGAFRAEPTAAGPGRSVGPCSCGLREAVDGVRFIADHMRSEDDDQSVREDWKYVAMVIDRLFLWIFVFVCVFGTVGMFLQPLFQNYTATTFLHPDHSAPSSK
Protocol: In Vitro Inhibition of ^3H-epibatidin Binding
The high affinity binding site for ^3H-epibatidin is most certainly binding to the α4β2 subtype of nicotinic receptors. The identity of the low affinity site is still unknown; does it represent a second nicotinic receptor or a second site in the same receptor.
Tissue preparation: Preparations are performed at 0–4° C. unless otherwise indicated. The forebrain (÷cerebellum) from a male Wistar rat (150–250 g) is homogenized for 10–20 sec in 20 ml Tris, HCl (50 mM, pH 7.4) using an Ultra-Turrax homogenizer. The tissue suspension is centrifuged at 27,000×g for 10 min. The supernatant is discarded and the pellet is washed three times by centrifugation at 27,000×g for 10 min in 20 ml fresh buffer, and the final pellet is resuspended in fresh buffer (400 ml per g of original tissue) and used for binding assays.
Assay: Aliquots of 2.0 ml homogenate are added to 0.100 ml of test solution and 0.100 ml of ^3H-epibatidin (0.3 nM, final concentration), mixed and incubated for 60 min at room temperature. Non-specific binding is determined using (−)-nicotine (30 μM, final concentration). After incubation the samples are poured directly onto Whatman GF/C glass fibre filters (presoaked in 0.1% PEI for at least 20 min) under suction and immediately washed with 2×5 ml ice-cold buffer. The amount of radioactivity on the filters is determined by conventional liquid scintillation counting. Specific binding is total binding minus non-specific binding.

[2] = target: nAChR formed by the α7 subunit isoform (Rattus norvegicus, UniProt Q05941); experiment: biochemical; format: binding
Chain of nAChR formed by the α7 subunit isoform (Q05941 23-502): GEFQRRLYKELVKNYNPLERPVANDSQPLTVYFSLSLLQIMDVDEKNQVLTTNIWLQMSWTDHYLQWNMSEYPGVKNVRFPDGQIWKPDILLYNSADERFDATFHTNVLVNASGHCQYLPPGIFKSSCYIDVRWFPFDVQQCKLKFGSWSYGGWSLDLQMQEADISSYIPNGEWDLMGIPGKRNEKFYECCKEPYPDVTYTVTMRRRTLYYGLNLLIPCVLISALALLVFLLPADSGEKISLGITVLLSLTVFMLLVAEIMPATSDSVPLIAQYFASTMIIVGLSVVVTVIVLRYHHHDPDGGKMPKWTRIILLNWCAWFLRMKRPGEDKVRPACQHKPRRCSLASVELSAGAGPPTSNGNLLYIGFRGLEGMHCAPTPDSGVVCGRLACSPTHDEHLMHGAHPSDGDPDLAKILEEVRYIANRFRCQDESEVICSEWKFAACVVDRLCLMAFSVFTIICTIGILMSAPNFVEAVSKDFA

[3] = target: nAChRs comprised of α4 and β2 subunits (Rattus norvegicus, UniProt P09483+P12390); experiment: In vitro inhibition of 3H-cytisine binding
Chain of nAChRs comprised of α4 and β2 subunits (P09483 31-630): as the sequence (P09483 31-630) above
Chain of nAChRs comprised of α4 and β2 subunits (P12390 25-500): as the sequence (P12390 25-500) above
Protocol: In Vitro Inhibition of ^3H-cytisine Binding
The predominant subtype with high affinity for nicotine is comprised of α4 and β2 subunits. nAChRs of the latter type can selectively be labelled by the nicotine agonist ^3H-cytisine.
Tissue Preparation: Preparations are performed at 0–4° C. unless otherwise indicated. […] The homogenate is centrifuged at 27,000×g for 10 min. The supernatant is discarded and the pellet is resuspended in fresh buffer and centrifuged a second time. The final pellet is resuspended in fresh buffer (35 ml per g of original tissue) and used for binding assays.
Assay: Aliquots of 500 μl homogenate are added to 25 μl of test solution and 25 μl of ^3H-cytisine (1 nM, final concentration), mixed and incubated for 90 min at 2° C. Non-specific binding is determined using (−)-nicotine (100 μM, final concentration). After incubation the samples are added 5 ml of ice-cold buffer and poured directly onto Whatman GF/C glass fibre filters under suction and immediately washed with 2×5 ml ice-cold buffer. The amount of radioactivity on the filters is determined by conventional liquid scintillation counting. Specific binding is total binding minus non-specific binding.

[4] = times that of morphine; cited from earlier work
[5] = rat forebrain homogenate, 0.3 nM 3H-epibatidin, read-out: 3H-epibatidin IC50
[6] = rat cerebral cortex homogenate, 1 nM 3H-cytisine, read-out: 3H-cytisine IC50

Compound	IC50 [1, 5] [nM]	IC50 [2] [µM]	IC50 [3, 6] [nM]	also measured
c1cncc(OC2CCCNCC2)c1 (racemic) (as salt: fumaric acid salt) [Compound 7b, (±)-4-Oxy-(3-pyridyl)-homopiperidine fumaric acid salt]	–	–	–	melting point: 117 to 119 °C
CN1CCC(Oc2cccnc2)C1 (racemic) [Compound 1a, (±)-1-Methyl-3-oxy-(3-pyridyl)-pyrrolidine]	700	16	100	–
c1cncc(OC2CCNC2)c1 (racemic) [Compound 1b, (±)-3-Oxy-(3-pyridyl)-pyrrolidine]	–	–	–	IC50 [1]: 410 nM; IC50 ([2]; read-out: 3H-α-bungarotoxin IC50): > 30 µM; IC50 [3]: 70 nM
CN1CCCC(Oc2cccnc2)C1 (racemic) [Compound 3a, (±)-1-Methyl-3-oxy-(3-pyridyl)-piperidine]	720	19	190	–
c1cncc(OC2CCCNCC2)c1 (racemic) [Compound 7b, (±)-4-Oxy-(3-pyridyl)-homopiperidine fumaric acid salt]	300	20	60	–
Clc1ccc(C2CC3CCC2N3)cn1 (centres unmarked) [Epibatidine]	–	–	–	analgesic potency relative to morphine [4]: ~500 times
